In patent publication US8389557B2, “Triazole derivatives useful as Axl inhibitors” (Rigel Pharmaceuticals, Inc., priority 2005, dated 2013) one finds IC50 data, which are given here for 29 compounds.

Broadly, the pIC50 is the IC50 on a negative log10 scale, so that one unit is a factor of ten. A low value points to a high IC50.

In the test the target is T1, Axl (Homo sapiens, UniProt P30530).
T1 construct: endogenous in cells; host or cells: HeLa cells
T1 sequence (P30530 26-894): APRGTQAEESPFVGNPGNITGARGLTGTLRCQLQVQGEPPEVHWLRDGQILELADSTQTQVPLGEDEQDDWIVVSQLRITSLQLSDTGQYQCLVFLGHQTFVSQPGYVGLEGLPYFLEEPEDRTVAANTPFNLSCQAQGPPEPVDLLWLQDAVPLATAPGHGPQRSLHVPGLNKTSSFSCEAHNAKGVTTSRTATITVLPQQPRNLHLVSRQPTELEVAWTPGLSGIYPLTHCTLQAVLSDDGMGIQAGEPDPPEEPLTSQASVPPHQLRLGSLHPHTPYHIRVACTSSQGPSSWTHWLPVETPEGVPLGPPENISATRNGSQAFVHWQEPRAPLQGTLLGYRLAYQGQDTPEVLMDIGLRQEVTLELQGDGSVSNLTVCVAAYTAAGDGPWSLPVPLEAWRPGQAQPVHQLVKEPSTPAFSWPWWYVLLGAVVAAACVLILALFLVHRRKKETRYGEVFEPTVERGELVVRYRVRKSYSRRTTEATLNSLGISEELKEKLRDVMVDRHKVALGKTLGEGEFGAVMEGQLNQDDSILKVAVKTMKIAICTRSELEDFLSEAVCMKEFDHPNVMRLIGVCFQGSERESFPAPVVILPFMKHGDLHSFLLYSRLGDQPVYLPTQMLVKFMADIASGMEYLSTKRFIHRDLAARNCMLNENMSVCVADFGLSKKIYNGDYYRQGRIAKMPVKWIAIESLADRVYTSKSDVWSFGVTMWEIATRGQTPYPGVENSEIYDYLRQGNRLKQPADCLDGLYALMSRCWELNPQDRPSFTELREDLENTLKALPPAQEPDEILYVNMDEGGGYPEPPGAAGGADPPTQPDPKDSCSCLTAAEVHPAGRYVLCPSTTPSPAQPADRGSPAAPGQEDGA
Kind of test: Phospho-Akt in-cell Western assay (inhibition of Axl activity). The test is classed as cell-based. The procedure, abridged:
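HeLa cells on poly-L-lysine, starved 24 h in 0.5% FCS DMEM with Axl/Fc 500 ng/mL, pre-treated with compound 1 h at 37° C. Axl stimulated 5 min by anti-Axl/anti-mouse antibody cross-linking. Fixed cells probed with anti-phospho-Akt and HRP secondary, chemiluminescence read.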

Setting [1] is: Table 8, Hela cells, Axl antibody cross-linking stimulation, phospho-Akt chemiluminescence.
Setting [2] is: Table 3, Hela cells, Axl antibody cross-linking stimulation, phospho-Akt chemiluminescence.
Setting [3] is: inhibition of Axl activity, Table 1.
[4] abbreviates: Table 5, Hela cells, Axl antibody cross-linking stimulation, phospho-Akt chemiluminescence.
Where [5] appears, read: inhibition of Axl activity, phospho-Akt in-cell Western assay, Table 1.
Setting [6] is: Table 7, Hela cells, Axl antibody cross-linking stimulation, phospho-Akt chemiluminescence.
The mark [7] stands for this setting: Table 4, Hela cells, Axl antibody cross-linking stimulation, phospho-Akt chemiluminescence.

Structures are written as SMILES. pIC50: −log10 of the molar value.

Turning to `CC(=O)N(C)c1ccc(Nc2nc(N)nn2C(=O)NC2CCCC2)cc1` [compound 178, 5-[4-(acetyl(methyl)amino)phenyl]amino-3-amino-N-cyclopentyl-1H-1,2,4-triazole-1-carboxamide], the pIC50 under setting [1] was less than 4.70.

For the compound `Nc1nc(Nc2ccc(OCCN3CCCC3)cc2)nn1C(=O)c1cc2ccccc2s1` [compound 367, 5-amino-1-(benzo[b]thiophen-2-yl)carbonyl-3-[4-[2-(pyrrolidin-1-yl)ethoxy]phenylamino]-1H-1,2,4-triazole], the negative-log IC50 (pIC50) under setting [2] was more than 6.00.

In the case of `COC(=O)COc1cccc(Nc2nc(N)n(C(=O)c3ccc(OC(C)C)cc3)n2)c1` [compound 135, 5-amino-1-(4-(iso-propoxy)phenyl)carbonyl-3-[3-(methoxycarbonylmethoxy)phenylamino]-1H-1,2,4-triazole], the pIC50 under setting [3] is 5.00 to 6.00.

`CC1(C)Oc2ccc(C(=O)n3nc(Nc4ccc(N5CCOCC5)cc4)nc3N)cc2NC1=O` [compound 68, 5-amino-1-(2,2-dimethyl-2H-benzo[b][1,4]oxazin-3(4H)-on-6-yl)carbonyl-3-(4-(morpholin-4-yl)phenylamino)-1H-1,2,4-triazole] gave a pIC50 under setting [2] of 5.00 to 6.00.

`Cc1cccc(C(=O)n2nc(Nc3cccnc3)nc2N)c1` [compound 220, 5-amino-1-(3-methylphenyl)carbonyl-3-(pyridin-3-yl)amino-1H-1,2,4-triazole]: the pIC50 under setting [4] was less than 4.70.

`CC(=O)N(C)c1ccc(Nc2nc(N)nn2C(=O)Nc2ccc3c(c2)OCO3)cc1` [compound 176, 5-[4-(acetyl(methyl)amino)phenyl]amino-3-amino-N-(1,3-benzodioxol-5-yl)-1H-1,2,4-triazole-1-carboxamide] showed a pIC50 under setting [1] of less than 4.70.

As for `CC(=O)Oc1ccc(C(=O)n2nc(Nc3ccc4c(c3)OCCO4)nc2N)cc1` [compound 109, 1-(4-(Acetoxy)phenyl)carbonyl-5-amino-3-(1,4-benzodioxan-6-yl)amino-1H-1,2,4-triazole], the pIC50 under setting [3] is 5.00 to 6.00.

Compound `Nc1nc(Nc2ccc(OCCN3CCCC3)cc2)nn1C(=O)c1ccc(-n2cccc2)cc1` [compound 282, 5-amino-1-(4-(pyrrol-1-yl)phenyl)carbonyl-3-[4-[2-(pyrrolidin-1-yl)ethoxy]phenylamino]-1H-1,2,4-triazole] showed a negative logarithm of the IC50 (pIC50) under setting [5] of more than 6.00.

Regarding `Cc1ccc(C(=O)n2nc(Nc3ccc(OCCN4CCCCC4)cc3)nc2N)cc1` [compound 53, 5-amino-1-(4-(methyl)phenyl)carbonyl-3-[4-[2-(piperidin-1-yl)ethoxy]phenylamino]-1H-1,2,4-triazole], under setting [3], the pIC50 is more than 6.00.

As to `CC(C)Oc1ccc(C(=O)n2nc(NC3C4C=CC(C4)C3C(N)=O)nc2N)cc1` (centres unmarked) [compound 354, 5-amino-1-(4-(iso-propoxy)phenyl)carbonyl-3-[(5-(aminocarbonyl)bicyclo[2.2.1]hept-2-en-6-yl)-amino]-1H-1,2,4-triazole], the pIC50 under setting [4] is less than 4.70.

As to `Cc1cccc(C(=O)n2nc(Nc3cccc(O)c3)nc2N)c1` [(Ia-7), 5-amino-3-[3-(hydroxy)phenylamino]-1-(3-(methyl)phenyl)carbonyl-1H-1,2,4-triazole], under setting [3], the pIC50 is 5.00 to 6.00.

In the case of `CN1CCN(c2ccc(Nc3nc(N)n(C(=O)c4cccc(N(C)C)c4)n3)cc2)CC1` [compound 363, 5-amino-1-(3-(dimethylamino)phenyl)carbonyl-3-[4-(4-methylpiperazin-1-yl)phenylamino]-1H-1,2,4-triazole], the pIC50 under setting [5] was more than 6.00.

As to `Nc1nc(Nc2ccc3c(c2)OCCO3)nn1C(=O)c1cccc(O)c1` [compound 166, 5-amino-3-(1,4-benzodioxan-6-yl)-amino-1-(3-(hydroxy)phenyl)carbonyl-1H-1,2,4-triazole], under setting [3], the pIC50 is 5.00 to 6.00.

Under setting [6], `Cc1ccc(NC(=O)n2nc(Nc3ccc(OCCN4CCCCC4)cc3)nc2N)cc1C` [compound 38, 5-amino-N-(3,4-(dimethyl)phenyl)-3-[4-[2-(piperidin-1-yl)ethoxy]phenylamino]-1H-1,2,4-triazole-1-carboxamide] had a pIC50 of 5.00 to 6.00.

Under setting [3], `Cc1cccc(C(=O)n2nc(Nc3cccc(OCC(=O)NCCOC4CCCCO4)c3)nc2N)c1` (centres unmarked) [compound 223] had a pIC50 of 5.00 to 6.00.

Under setting [2], `Nc1nc(Nc2ccc(OCCn3ccnc3)cc2)nn1C(=O)c1ccc2sccc2c1` [compound 377, 5-amino-1-(benzo[b]thiophen-5-yl)carbonyl-3-[4-[2-(imidazol-1-yl)ethoxy]phenylamino]-1H-1,2,4-triazole] showed a pIC50 of more than 6.00.

Consider `CC1(C)Oc2ccc(C(=O)n3nc(N)nc3Nc3ccc(N4CCOCC4)cc3)cc2NC1=O` [compound 69, 3-amino-1-(2,2-dimethyl-2H-benzo[b][1,4]oxazin-3(4H)-on-6-yl)carbonyl-5-(4-(morpholin-4-yl)phenylamino)-1H-1,2,4-triazole], for which the pIC50 under setting [7] was 5.00 to 6.00.

Under setting [2], `Nc1nc(Nc2ccc(OCCN3CCCC3)cc2)nn1C(=O)c1ccccn1` [compound 203, 5-amino-1-(pyridin-2-yl)carbonyl-3-[4-[2-(pyrrolidin-1-yl)ethoxy]phenylamino]-1H-1,2,4-triazole] showed a pIC50 of less than 4.70.

On to `Nc1nc(Nc2ccc(OCCN3CC[C@H](F)C3)cc2)n(C(=O)c2ccc3c(c2)OCCO3)n1` [compound 387, 3-amino-1-(1,4-benzodioxan-6-yl)carbonyl-5-[4-[2-((S)-3-fluoropyrrolidin-1-yl)ethoxy]phenylamino]-1H-1,2,4-triazole], for which, under setting [7], the negative-log IC50 (pIC50) is more than 6.00.

As to `Nc1nc(Nc2ccc(OCCN3CCCC3)cc2)nn1C(=O)c1cccc(OC(F)(F)F)c1` [compound #7, 5-Amino-3-[4-[2-(pyrrolidin-1-yl)ethoxy]phenylamino]-1-(3-(trifluoromethoxy)phenyl)carbonyl-1H-1,2,4-triazole], under setting [5], the pIC50 is more than 6.00.

For the compound `Nc1nc(Nc2ccc3c(c2)OCCO3)nn1C(=O)c1ccc(OCC(F)(F)F)cc1` [compound 230, 5-amino-3-(1,4-benzodioxan-6-yl)amino-1-(4-(2,2,2-trifluoroethoxy)phenyl)carbonyl-1H-1,2,4-triazole], the pIC50 under setting [3] was less than 4.70.

Under setting [3], `Nc1nc(Nc2ccc3c(c2)OCCO3)nn1C(=O)c1ccc(Cl)cc1` [compound 95, 5-amino-1-(4-(chloro)phenyl)carbonyl-3-(1,4-benzodioxan-6-yl)amino-1H-1,2,4-triazole] gave a pIC50 of 5.00 to 6.00.

In turn, `Nc1nc(Nc2ccc3c(c2)OCCO3)nn1C(=O)c1ccc([N+](=O)[O-])cc1` [compound 240, 5-amino-3-(1,4-benzodioxan-6-yl)amino-1-(4-nitrophenyl)carbonyl-1H-1,2,4-triazole] showed a pIC50 under setting [3] of less than 4.70.

`CS(=O)(=O)N1CCC(Nc2nc(N)n(C(=O)c3c(F)cccc3F)n2)CC1` [compound 392, 5-amino-1-(2,6-difluorophenyl)carbonyl-3-(1-methylsulfonylpiperidin-4-yl)amino-1H-1,2,4-triazole] gave a pIC50 under setting [4] of less than 4.70.

Compound `CC(C)Oc1ccc(C(=O)n2nc(Nc3ccc(OCCN4CCCC4)cc3)nc2N)cc1` [(Ia-2), 5-amino-1-(4-(iso-propoxy)phenyl)carbonyl-3-[4-[2-(pyrrolidin-1-yl)ethoxy]phenylamino]-1H-1,2,4-triazole] had a pIC50 under setting [5] of more than 6.00.

`Nc1nc(Nc2ccc(OCCN3CCCC3)cc2)nn1C(=S)Nc1c(F)cccc1F` [compound 326, 5-amino-N-(2,6-difluorophenyl)-3-[4-[2-(pyrrolidin-1-yl)ethoxy]phenylamino]-1H-1,2,4-triazole-1-carbothioamide] showed a pIC50 under setting [6] of more than 6.00.

In turn, `CN(C)c1cccc(C(=O)n2nc(Nc3ccc(OCCN4CCCC4)cc3)nc2N)c1` [compound 197, 5-amino-1-(3-(dimethylamino)phenyl)carbonyl-3-[4-[2-(pyrrolidin-1-yl)ethoxy]phenylamino]-1H-1,2,4-triazole] showed a pIC50 under setting [5] of less than 4.70.

In turn, `COc1ccccc1C(=O)n1nc(Nc2ccc3c(c2)OCCO3)nc1N` [compound 106, 5-amino-3-(1,4-benzodioxan-6-yl)amino-1-(2-(methyloxy)phenyl)carbonyl-1H-1,2,4-triazole] gave a pIC50 under setting [3] of less than 4.70.

For the compound `Cc1cccc(C(=O)n2nc(Nc3ccc4c(c3)NCCO4)nc2N)c1` [compound 215, 5-amino-3-[(3,4-dihydrobenzo[1,4]oxazin-6-yl)amino]-1-(3-methylphenyl)carbonyl-1H-1,2,4-triazole], the pIC50 under setting [4] is less than 4.70.
